In ChEMBL document CHEMBL5154656, “High-Throughput Screening Platform in Postnatal Heart Cells and Chemical Probe Toolbox to Assess Cardiomyocyte Proliferation” (J Med Chem, 2022):
The source made the active and inactive calls. No cut-off for these calls is given here.

Assays:
Cardiac Muscle Cell [1] = assay: Induction of cell proliferation in postnatal day 6 CD1 mouse cardiac cells assessed as enhancement in cardiomyocyte numbers by measuring alphaAct+; type: functional, cell-based
Cardiac Muscle Cell [2] = assay: Induction of cell proliferation in postnatal day 6 mouse cardiac cells assessed as stimulation in pro-prolierative responses; type: functional, cell-based; details: dose 0.33-10 µM, DDE = dose-dependent effect
Cardiac Muscle Cell [3] = assay: Induction of cell proliferation in postnatal day 6 mouse cardiac cells assessed as increase in CM numbers at 0.33 to 5 uM; type: functional, cell-based; details: dose 0.33-5 µM
[4] = Cytotoxicity against mouse Cardiomyocytes assessed as toxicity at 0.33 to 10 uM; type: cell-based; details: cardiac muscle cell, dose 0.33-10 µM
Cardiac Muscle Cell [5] = assay: Induction of cell proliferation in postnatal day 1 CD1 mouse cardiac cells assessed as enhancement in cardiomyocyte numbers by measuring alphaAct+; type: functional, cell-based
Cardiac muscle cell [6] = assay: Induction of cell proliferation in postnatal day 1 Wistar rat cardiac cells assessed as enhancement cardiomyocyte numbers by measuring alphaAct+; type: functional, cell-based
Cardiac muscle cell [7] = assay: Induction of cell proliferation in postnatal day 6 Wistar rat cardiac cells assessed as enhancement cardiomyocyte numbers by measuring alphaAct+; type: functional, cell-based
Cardiac muscle cell [8] = assay: Induction of cell proliferation in postnatal day 1 Wistar rat cardiac cells assessed as increase in cardiomyocyte numbers by measuring alphaAct+ at 0.33 to 5 uM; type: functional, cell-based; details: dose 0.33-5 µM
Cardiac Muscle Cell [9] = assay: Induction of cell proliferation in postnatal day 1 mouse cardiac cells assessed as increase in CM numbers at 0.33 to 5 uM; type: functional, cell-based; details: dose 0.33-5 µM
Cardiac muscle cell [10] = assay: Cytotoxicity against rat Cardiomyocytes assessed as toxicity at 0.33 to 10 uM; type: cell-based; details: dose 0.33-10 µM
Cardiac muscle cell [11] = assay: Induction of cell proliferation in postnatal day 6 rat cardiac cells assessed as increase in CM numbers at 0.33 to 5 uM; type: functional, cell-based; details: dose 0.33-5 µM
Cardiac muscle cell [12] = assay: Induction of cell proliferation in postnatal day 6 rat cardiac cells assessed as stimulation in pro-prolierative responses; type: functional, cell-based; details: dose 0.1-10 µM, DDE = dose-dependent effect
Cardiac Muscle Cell [13] = assay: Induction of cell proliferation in postnatal day 6 mouse cardiac cells assessed as increase in total CM nuclei number; type: functional, cell-based
Cardiac Muscle Cell [14] = assay: Induction of cell proliferation in postnatal day 1 transgenic mouse cardiac cells assessed as increase in percentage of eGFP-anillin-positive cardiomyocytes; type: functional, cell-based
Cardiac Muscle Cell [15] = assay: Induction of cell proliferation in postnatal day 6 transgenic mouse cardiac cells assessed as increase in percentage of eGFP-anillin-positive cardiomyocytes; type: functional, cell-based
Cardiac muscle cell [16] = assay: Induction of cell proliferation in postnatal day 5 rat cardiac cells assessed as increase in total CM nuclei number; type: functional, cell-based
Cardiac Muscle Cell [17] = assay: Induction of cell proliferation in postnatal day 1 transgenic mouse cardiac cells assessed as increase in total CM nuclei number; type: functional, cell-based
Cardiac Muscle Cell [18] = assay: Induction of cell proliferation in postnatal day 1 transgenic mouse cardiac cells assessed as increase in bi-nucleation; type: functional, cell-based
Cardiac Muscle Cell [19] = assay: Induction of cell proliferation in postnatal day 6 CD1 mouse heart assessed as increase in number of cardiomyocyte by measuring mCherry+ cardiomyocyte nuclei at 0.001 to 1 uM; type: functional, cell-based; details: dose 0.001-1 µM, DDE = dose-dependent effect
Cardiac muscle cell [20] = assay: Induction of cell proliferation in postnatal day 5 rat cardiac cells assessed as increase in nuclear to cytoplasmic YAP ratio for 4 to 24 hrs by immunostaining analysis; type: functional, cell-based; details: time 4-24 hrs
Cardiac muscle cell [21] = assay: Induction of cell proliferation in postnatal day 6 rat cardiac cells assessed as increasing in number of cardiomyocytes; type: functional, cell-based; details: dose 0.1-10 µM, DDE = dose-dependent effect
Cardiac muscle cell [22] = assay: Pro-proliferative activity in Wistar rat cardiac cells from P6 late postnatal developmental time points assessed as effect on cell number by measuring alphaAct/Ki67 cardiomyocyte nuclei at 0.33 to 10 uM by DAPI analysis; type: functional, cell-based; details: dose 0.33-10 µM
Cardiac muscle cell [23] = assay: Pro-proliferative activity in Wistar rat cardiac cells from P1 early postnatal developmental time points assessed as effect on cell number by measuring alphaAct/Ki67 cardiomyocyte nuclei at 0.33 to 10 uM by DAPI analysis; type: functional, cell-based; details: dose 0.33-10 µM
[24] = biological target: Mitogen-activated protein kinase 11 (Homo sapiens) (UniProt Q15759); assay: Inhibition of P38betaMAPK (unknown origin) relative to control; details: concentration not given here
Mitogen-activated protein kinase 11 (Homo sapiens), sequence (Q15759 whole entry): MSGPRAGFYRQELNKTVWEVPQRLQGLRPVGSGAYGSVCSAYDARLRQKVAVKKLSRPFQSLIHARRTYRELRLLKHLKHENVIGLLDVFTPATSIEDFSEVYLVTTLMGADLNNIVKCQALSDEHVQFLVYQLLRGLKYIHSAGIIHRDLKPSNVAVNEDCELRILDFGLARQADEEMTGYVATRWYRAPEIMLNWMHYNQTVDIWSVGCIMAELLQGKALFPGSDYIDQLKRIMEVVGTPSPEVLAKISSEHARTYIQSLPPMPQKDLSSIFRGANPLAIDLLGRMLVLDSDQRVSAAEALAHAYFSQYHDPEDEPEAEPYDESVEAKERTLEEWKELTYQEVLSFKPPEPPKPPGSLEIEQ

[25] = biological target: Mitogen-activated protein kinase 14 (Homo sapiens) (UniProt Q16539); assay: Inhibition of P38alphaMAPK (unknown origin) relative to control; details: concentration not given here
Mitogen-activated protein kinase 14 (Homo sapiens), sequence (Q16539 whole entry): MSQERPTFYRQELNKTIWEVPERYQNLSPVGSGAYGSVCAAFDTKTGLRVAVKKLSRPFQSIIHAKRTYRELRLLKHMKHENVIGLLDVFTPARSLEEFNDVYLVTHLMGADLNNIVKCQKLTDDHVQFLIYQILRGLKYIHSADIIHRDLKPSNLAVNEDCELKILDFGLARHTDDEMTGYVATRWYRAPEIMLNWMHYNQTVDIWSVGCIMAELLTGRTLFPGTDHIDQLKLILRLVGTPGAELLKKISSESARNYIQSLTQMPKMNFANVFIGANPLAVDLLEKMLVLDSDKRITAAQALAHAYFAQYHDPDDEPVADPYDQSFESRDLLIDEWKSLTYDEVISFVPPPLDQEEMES

[26] = Cytotoxicity against mouse Cardiomyocytes assessed as toxicity at > 1 uM; type: cell-based; details: cardiac muscle cell
Cardiac muscle cell [27] = assay: Cytotoxicity against rat Cardiomyocytes assessed as toxicity at > 1 uM; type: cell-based

With COc1nccc(-c2c(-c3ccc(F)cc3)ncn2[C@H]2CC[C@H](O)CC2)n1 the Activity (Cardiac Muscle Cell [1]) was “Active”, the Activity (Cardiac Muscle Cell [2]) was “Dde” and the Activity (Cardiac Muscle Cell [3]) was “Active”. The Activity [4] was “Non-Toxic”, the Activity (Cardiac Muscle Cell [5]) was “Active” and the Activity (Cardiac muscle cell [6]) was “Active”. The Activity (Cardiac muscle cell [7]) was “Active”, the Activity (Cardiac muscle cell [8]) was “Active” and the Activity (Cardiac Muscle Cell [9]) was “Active”. For the same molecule, the Activity (Cardiac muscle cell [10]) was “Non-Toxic”, the Activity (Cardiac muscle cell [11]) was “Active” and the Activity (Cardiac muscle cell [12]) was “Dde”.
For CN1CCN(Cc2ccc(NC(=O)Nc3ccc(Oc4cc(NC(=O)C5CC5)ncn4)cc3)cc2C(F)(F)F)CC1, the Activity (Cardiac Muscle Cell [13]) was “Active”, the Activity (Cardiac Muscle Cell [14]) was “Active” and the Activity (Cardiac Muscle Cell [15]) was “Active”. For the same molecule, the Activity (Cardiac muscle cell [16]) was “Active”, the Activity (Cardiac Muscle Cell [17]) was “Active” and the Activity (Cardiac Muscle Cell [18]) was “Active”. For the same molecule, the Activity (Cardiac Muscle Cell [19]) was “Dde”.
In the case of CN1CCN(Cc2ccc(NC(=O)Cc3ccc(Oc4cc(NC(=O)C5CC5)ncn4)cc3)cc2C(F)(F)F)CC1, the Activity (Cardiac muscle cell [20]) is reported as “Active”, the Activity (Cardiac Muscle Cell [13]) is reported as “Active” and the Activity [4] is reported as “Non-Toxic”. The Activity (Cardiac Muscle Cell [14]) was “Active”, the Activity (Cardiac Muscle Cell [15]) was “Active” and the Activity (Cardiac muscle cell [16]) was “Active”. For the same molecule, the Activity (Cardiac Muscle Cell [17]) was “Active”, the Activity (Cardiac Muscle Cell [18]) was “Active” and the Activity (Cardiac Muscle Cell [19]) was “Dde”. The Activity (Cardiac muscle cell [10]) was “Non-Toxic”.
In the case of Cc1c[nH]c(-c2cnc(NCCNc3ccc(C#N)cn3)nc2-c2ccc(Cl)cc2Cl)n1 [LADUVIGLUSIB], the Activity [4] is reported as “Non-Toxic” and the Activity (Cardiac muscle cell [10]) is reported as “Non-Toxic”.
For Cc1cnc(-c2cnc(NCCNc3ccc(C#N)cn3)nc2-c2ccc(Cl)cc2Cl)[nH]1, the Activity (Cardiac muscle cell [20]) was “Active” and the Activity (Cardiac muscle cell [21]) was “Dde”.
For O=C(OCCN1CCOCC1)c1ccc2c(c1)C(=O)c1ccc(Nc3ccc(F)cc3F)cc1CC2, the Activity (Cardiac muscle cell [22]) was “Active” and the Activity (Cardiac muscle cell [23]) was “Active”.
In the case of O=C1c2ccc(Nc3ccc(F)cc3F)cc2CCc2ccc(OC[C@H](O)CO)cc21, the inhibition [24] is reported as 99.8%, the Activity (Cardiac muscle cell [22]) is reported as “Active” and the Activity (Cardiac muscle cell [23]) is reported as “Active”. It also gave an inhibition [25] of 99.8%.
For O=C(NCC(O)CO)c1ccc2c(c1)C(=O)c1ccc(Nc3ccc(F)cc3F)cc1CC2 (stereo not drawn), the Activity (Cardiac muscle cell [22]) was “Active” and the Activity (Cardiac muscle cell [23]) was “Active”.
With CCn1c(=O)[nH]c2ccccc21 the Activity [26] was “Toxic” and the Activity (Cardiac muscle cell [27]) was “Toxic”.
